Measured values published in patent US20040180862A1, “Compositions and methods for inhibiting bone resorption” (priority 2001, published 2004).
Entries after “also recorded” stand apart in the source; their conditions may differ. Like-named read-outs stand apart in the source and are kept apart here.

Experiments:
[1] = test system: Ch1.Es esophageal fibroblasts; experiment: Activation of pro-apoptotic kinases (in-gel kinase assay, phospho-specific immunoblotting); type: cell-based; settings: 300 μM, 24 hours
Method: Cell lysates were analyzed using an in-gel kinase assay (top) or by immuno-blotting with anti-phospho-specific antibodies recognizing active MAP kinases (Erk1 and 2), p38, or Jun N-terminal kinase (Jnk).

[2] = test system: Ch1.Es esophageal fibroblasts; experiment: Protein isoprenylation in Ch1.Es fibroblasts (immunoblot with anti-hDNAJ and anti-Rap1A markers); type: cell-based
Method: (§1) Cells were treated for 24 hours and protein lysates were analyzed for suppression of protein isoprenylation. Markers included either anti-hDNAJ, a farnesylated protein that migrates more slowly when farnesylation is absent (two bands observed) or anti-Rap1A, which we have shown previously to bind preferentially to Rap1A if isoprenylation is blocked (presence of a band indicates absence of protein geranylgeranylation) (See Reszka, A. A., Halasy-Nagy, J. and Rodan, G. A. Molecular Pharmacology 59:193-202, 2001).
(A) Cells pretreated for 24 hours with nothing or the squalene synthase inhibitor, zaragozic Acid A (Zara-A) at 3 μM (three lanes indicated).
as §1, with “geranylgeranylation. See FIG. 1.” for “geranylgeranylation) (See Reszka, A. A., Halasy-Nagy, J. and Rodan, G. A. Molecular Pharmacology 59:193-202, 2001).”
(A) Cells pretreated for 24 hours with nothing or the squalene synthase inhibitor, Zaragozic Acid A (Zara-A) at 3 μM (three lanes indicated).

[3] = test system: Ch1.Es esophageal fibroblasts; experiment: Apoptosis in Ch1.Es cells (cell rounding and detachment from the dish); type: cell-based; settings: for induction of apoptosis: bisphosphonate 300 μM, 24 hours; for suppression of ALN-induced apoptosis in absence of lipoprotein / suppression of RIS-induced apoptosis in absence of lipoprotein: FIG. 3: LPDS, Zara-A 10 μM; for suppression of ALN-induced apoptosis in absence of lipoprotein: ALN 300 μM 24 hours; for suppression of RIS-induced apoptosis in absence of lipoprotein: RIS 300 μM 24 hours
Method: Apoptosis is observed as cell rounding and detachment from the dish.
Ch1.Es cells were grown for 24 hours in either fetal bovine serum (FBS) (top panels) or lipoprotein-deficient […] (LPDS) in the absence (middle) or presence (bottom) of Zara-A (10 μM). […] (300 μM). Phenotypes were scored as in FIG. 2. The suppression of apoptosis is near complete after inclusion of Zara-A.

[4] = test system: skin; settings: subcutaneous, 5 days; for effect of coadministered Zara-A on ALN-induced skin irritation / thickening: ALN 0.5 mg/kg with Zara-A 3 μg/kg; for effect of coadministered Zara-A on ALN-induced skin irritation / thickening / effect of coadministered Zara-A on RIS-induced skin irritation / thickening: P≦0.01; for effect of coadministered Zara-A on RIS-induced skin irritation / thickening: RIS 0.5 mg/kg with Zara-A 3 μg/kg
[5] = test system: skin; experiment: Skin irritation after subcutaneous injection, histology (hematoxylin and eosin, affected area); type: in vivo, Rats; settings: 5 days
Method: Skin was harvested after necropsy, fixed with formalin, thin-sectioned and stained with hematoxylin and eosin. Area was determined by measuring the thickness and length of each affected area and is represented vs. the H2O control.

[6] = ALN 300 μM, 24 hours, absence of Zara-A
[7] = listed as squalene synthase inhibitor
[8] = Zara-A 0.1-10 μM pretreated 24 hours, then ALN 300 μM 24 hours

| Structure (SMILES) | activation of pro-apoptotic kinases [1] | inhibition of Rap1A geranylgeranylation [2, 6] | inhibition of hDNAJ farnesylation [2, 6] | induction of apoptosis [3] | volume of affected skin area ([4]; 0.5 mg/kg, vehicle control 50-100) [mm^3] | skin irritation ([5]; 0.5 mg/kg) | effect of coadministered Zara-A on ALN-induced skin irritation / thickening [4] | effect of coadministered Zara-A on ALN-induced skin irritation / thickening [4, 7] | effect of coadministered Zara-A on RIS-induced skin irritation / thickening [4] | effect of coadministered Zara-A on RIS-induced skin irritation / thickening [4, 7] | suppression of ALN-induced skin irritation ([5]; FIG. 6: ALN 0.5 mg/kg with Zara-A 3 μg/kg) | effect of Zara-A pretreatment on ALN inhibition of Rap1A geranylgeranylation ([2]; Zara-A 3 μM pretreated 24 hours, then ALN 300 μM 24 hours) | effect of Zara-A on capacity of ALN to inhibit Rap1A geranylgeranylation [2, 8] | effect of Zara-A on capacity of ALN to inhibit hDNAJ farnesylation [2, 8] | suppression of ALN-induced apoptosis ([3]; FIG. 2: Zara-A 24 hours, then ALN 300 μM 24 hours) | suppression of ALN-induced apoptosis in absence of lipoprotein [3] | suppression of ALN-induced apoptosis in absence of lipoprotein [3, 7] | suppression of RIS-induced apoptosis in absence of lipoprotein [3] | suppression of RIS-induced apoptosis in absence of lipoprotein [3, 7] |
| --- | --- | --- | --- | --- | --- | --- | --- | --- | --- | --- | --- | --- | --- | --- | --- | --- | --- | --- | --- |
| NCCCC(O)(P(=O)(O)O)P(=O)(O)O [ALN, 4-amino-1-hydroxybutylidene-1,1-bisphosphonic acid monosodium trihydrate] | activate | strongly inhibits | strongly inhibits | induced |  |  |  |  |  |  |  |  |  |  |  |  |  |  |  |
| O=P(O)(O)C(O)(Cc1cccnc1)P(=O)(O)O [RIS, 1-hydroxy-2-(3-pyridinyl)-ethylidene-1,1-bisphosphonic acid] | activate |  |  | induced | 240 | Skin irritation induced |  |  |  |  |  |  |  |  |  |  |  |  |  |
| C=C(CC[C@]12O[C@H](C(=O)O)[C@@](O)(C(=O)O)[C@](C(=O)O)(O1)[C@H](OC(=O)/C=C/[C@@H](C)C[C@@H](C)CC)[C@H]2O)[C@@H](OC(C)=O)[C@H](C)Cc1ccccc1 [Zara-A, zaragozic Acid A] |  |  |  |  |  |  | significantly reduced | suppresses | significantly reduced | suppresses | suppresses | reduced; also recorded: diminished | dose-dependently reduces; also recorded: dose-dependently diminished | dose-dependently reduces; also recorded: dose-dependently diminished | suppression | near complete | maximally suppresses | near complete | maximally suppresses |
